Laboratory results taken from US20210255193A1, “LYSINE REACTIVE PROBES AND USES THEREOF” (The Scripps Research Institute, priority 2017, published 2021).
Blank lines part the entries; values can stand above or below the compound they belong to.

Key:
Test in all cases: competitive isoTOP-ABPP
Assay type in all cases: binding
[1] = target: T1, ERO1L ERO1-like protein alpha (Homo sapiens, UniProt Q96HE7); settings: for isoTOP-ABPP ratio (R) at liganded lysine Q96HE7_K413 / isoTOP-ABPP reactivity ratio at lysine Q96HE7_K413: 50 uM, in vitro; for isoTOP-ABPP ratio (R) at liganded lysine Q96HE7_K413: sol, 231; for isoTOP-ABPP ratio, lysine Q96HE7_K413: 50 uM_231_sol_in vitro, possible other lysine Q86YB8_K412; for isoTOP-ABPP reactivity ratio at lysine Q96HE7_K413: 231 sol
T1 construct: isoTOP-ABPP experiments performed in cell lysates (in vitro); endogenous in cells; host or cells: soluble proteome of human cancer cell lines (MDA-MB-231; Ramos and Jurkat also prepared)
T1 sequence (Q96HE7 24-468): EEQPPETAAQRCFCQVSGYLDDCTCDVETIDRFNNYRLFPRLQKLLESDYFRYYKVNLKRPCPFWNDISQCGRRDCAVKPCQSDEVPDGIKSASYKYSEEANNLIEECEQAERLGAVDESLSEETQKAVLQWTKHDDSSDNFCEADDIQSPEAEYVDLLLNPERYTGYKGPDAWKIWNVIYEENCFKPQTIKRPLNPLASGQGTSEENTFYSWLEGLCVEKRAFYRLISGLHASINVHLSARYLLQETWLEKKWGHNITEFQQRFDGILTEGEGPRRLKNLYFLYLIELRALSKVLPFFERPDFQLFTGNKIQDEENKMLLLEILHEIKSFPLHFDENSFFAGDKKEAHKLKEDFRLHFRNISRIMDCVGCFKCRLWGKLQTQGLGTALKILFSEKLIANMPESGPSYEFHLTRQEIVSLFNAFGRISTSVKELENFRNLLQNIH
Procedure, shortened: (§1)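 Lysate + fragment (50 μM activated ester / 100 μM guanidinylating agent) or DMSO → 0.1 mM STP-alkyne, 1 h, RT → CuAAC to TEV tags (compound light, DMSO heavy) → LC-MS. R = heavy/light MS1 area; liganded lysine if R≥4.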

[2] = target: T2, NUDT22 Nucleoside diphosphate-linked moiety X motif 22 (Homo sapiens, UniProt Q9BRQ3); settings: for isoTOP-ABPP ratio (R) at liganded lysine Q9BRQ3_K60 / isoTOP-ABPP reactivity ratio at lysine Q9BRQ3_K60: 50 uM, in vitro; for isoTOP-ABPP ratio (R) at liganded lysine Q9BRQ3_K60: sol, 231; for isoTOP-ABPP reactivity ratio at lysine Q9BRQ3_K60: 231 sol
T2 construct: isoTOP-ABPP experiments performed in cell lysates (in vitro); endogenous in cells; host or cells: soluble proteome of human cancer cell lines (MDA-MB-231; Ramos and Jurkat also prepared)
T2 sequence (Q9BRQ3 1-303): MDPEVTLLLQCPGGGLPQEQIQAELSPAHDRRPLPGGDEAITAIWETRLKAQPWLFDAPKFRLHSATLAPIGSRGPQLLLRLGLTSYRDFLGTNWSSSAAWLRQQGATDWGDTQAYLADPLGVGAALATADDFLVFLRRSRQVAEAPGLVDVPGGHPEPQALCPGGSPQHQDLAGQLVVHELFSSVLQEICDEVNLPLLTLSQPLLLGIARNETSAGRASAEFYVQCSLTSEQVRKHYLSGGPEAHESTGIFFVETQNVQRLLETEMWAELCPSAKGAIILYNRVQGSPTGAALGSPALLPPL
Procedure, shortened: as §1

[3] = target: T3, RPS10 40S ribosomal protein S10 (Homo sapiens, UniProt P46783); settings: for isoTOP-ABPP reactivity ratio at lysine P46783_K139: 231 sol
T3 construct: isoTOP-ABPP experiments performed in cell lysates (in vitro); endogenous in cells; host or cells: soluble proteome of human cancer cell lines (MDA-MB-231; Ramos and Jurkat also prepared)
Procedure, shortened: as §1

[4] = target: T4, IFIT3 Interferon-induced protein with tetratricopeptide (Homo sapiens, UniProt O14879); settings: for isoTOP-ABPP reactivity ratio at lysine O14879_K148: 231 sol; for isoTOP-ABPP ratio, lysine O14879_K148: 50 uM_231_sol_in vitro
T4 construct: isoTOP-ABPP experiments performed in cell lysates (in vitro); endogenous in cells; host or cells: MDA-MB-231 soluble lysate
T4 sequence (O14879 1-490): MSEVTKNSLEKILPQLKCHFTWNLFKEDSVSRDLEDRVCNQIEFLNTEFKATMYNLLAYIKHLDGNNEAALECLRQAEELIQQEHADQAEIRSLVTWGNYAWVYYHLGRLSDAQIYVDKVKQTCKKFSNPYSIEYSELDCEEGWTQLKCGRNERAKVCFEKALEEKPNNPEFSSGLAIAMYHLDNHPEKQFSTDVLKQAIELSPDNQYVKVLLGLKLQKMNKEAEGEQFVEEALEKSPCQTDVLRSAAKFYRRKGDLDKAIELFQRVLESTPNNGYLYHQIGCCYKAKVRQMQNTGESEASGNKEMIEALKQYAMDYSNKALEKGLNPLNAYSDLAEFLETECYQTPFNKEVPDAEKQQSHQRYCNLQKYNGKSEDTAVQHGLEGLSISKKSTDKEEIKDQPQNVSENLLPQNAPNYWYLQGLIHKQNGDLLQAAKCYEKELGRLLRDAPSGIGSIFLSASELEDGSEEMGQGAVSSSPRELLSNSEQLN
Procedure, shortened: as §1

Structure (SMILES): O=C(Oc1ccc([N+](=O)[O-])cc1[N+](=O)[O-])c1ccc2ccccc2n1 [fragment 35, 2,4-Dinitrophenyl quinoline-2-carboxylate]
isoTOP-ABPP ratio (R) at liganded lysine Q96HE7_K413 [1]: 2.2
isoTOP-ABPP ratio (R) at liganded lysine Q9BRQ3_K60 [2]: 1.1

isoTOP-ABPP reactivity ratio at lysine P46783_K139 ([3]; 50 uM, in vitro): 1.2
isoTOP-ABPP reactivity ratio at lysine O14879_K148 ([4]; 50 uM, in vitro): 1.3
Structure (SMILES): O=C(Oc1c(F)c(F)c(F)c(F)c1F)C1CCN(C(=O)OCc2ccccc2)CC1 [fragment 24, 1-Benzyl 4-(pentafluorophenyl) piperidine-1,4-dicarboxylate]

isoTOP-ABPP reactivity ratio at lysine Q9BRQ3_K60 [2]: 0.8
isoTOP-ABPP reactivity ratio at lysine O14879_K148 ([4]; 50 uM, in vitro): 1.9
Structure (SMILES): O=C(Oc1c(F)c(F)c(F)c(F)c1F)c1ccc2ccccc2n1 [fragment 25, Pentafluorophenyl quinoline-2-carboxylate]

Structure (SMILES): O=C(Oc1ccc([N+](=O)[O-])cc1[N+](=O)[O-])c1cc(C(F)(F)F)cc(C(F)(F)F)c1 [fragment 31, 2,4-Dinitrophenyl 3,5-bis(trifluoromethyl)benzoate]
isoTOP-ABPP reactivity ratio at lysine Q9BRQ3_K60 [2]: 1.1

Structure (SMILES): O=C(Oc1ccc([N+](=O)[O-])cc1[N+](=O)[O-])c1ccccc1Nc1cccc(C(F)(F)F)c1 [fragment 40, 2,4-Dinitrophenyl 2-((3-(trifluoromethyl)phenyl)amino)benzoate]
isoTOP-ABPP ratio (R) at liganded lysine Q9BRQ3_K60 [2]: 0.9

Structure (SMILES): N#Cc1ccc(C(=O)Oc2ccc([N+](=O)[O-])cc2[N+](=O)[O-])cc1 [fragment 44, 2,4-Dinitrophenyl 4-cyanobenzoate]
isoTOP-ABPP ratio, lysine P46783_K139 ([3]; 50 uM_231_sol_in vitro): 0.6
isoTOP-ABPP ratio, lysine Q96HE7_K413 [1]: 1.9
isoTOP-ABPP ratio, lysine O14879_K148 [4]: 2.2

Structure (SMILES): O=C(Oc1ccc([N+](=O)[O-])cc1[N+](=O)[O-])C(c1ccccc1)c1ccccc1 [fragment 30, 2,4-Dinitrophenyl 2,2-diphenylacetate]
isoTOP-ABPP reactivity ratio at lysine P46783_K139 ([3]; 50 uM, in vitro): 1.2
isoTOP-ABPP reactivity ratio at lysine Q96HE7_K413 [1]: 1.2

Structure (SMILES): O=C(ON1C(=O)CCC1=O)c1cc(C(F)(F)F)cc(C(F)(F)F)c1 [fragment 46, 3,5-Bis(trifluoromethyl)benzoic acid NHS ester]
isoTOP-ABPP ratio, lysine Q96HE7_K413 [1]: 6.5
isoTOP-ABPP ratio, lysine Q9BRQ3_K60 ([2]; 50 uM_231_sol_in vitro): 0.9
isoTOP-ABPP ratio, lysine O14879_K148 [4]: 2.2

Structure (SMILES): O=C(Oc1ccc([N+](=O)[O-])cc1[N+](=O)[O-])c1ccc(Oc2ccccc2)cc1 [fragment 39, 2,4-Dinitrophenyl 4-phenoxybenzoate]
isoTOP-ABPP ratio (R) at liganded lysine Q9BRQ3_K60 [2]: 0.9
isoTOP-ABPP ratio (R) at liganded lysine O14879_K148 ([4]; 50 uM, in vitro, sol, 231): 1.4

Structure (SMILES): O=C(Oc1ccc([N+](=O)[O-])cc1[N+](=O)[O-])c1ccc(-c2ccccc2)cc1 [fragment 37, 2,4-Dinitrophenyl [1,1′-biphenyl]-4-carboxylate]
isoTOP-ABPP ratio (R) at liganded lysine P46783_K139 ([3]; 50 uM, in vitro, sol, 231): 0.6
isoTOP-ABPP ratio (R) at liganded lysine Q96HE7_K413 [1]: 2.4
isoTOP-ABPP ratio (R) at liganded lysine Q9BRQ3_K60 [2]: 1.0

Structure (SMILES): COc1cc(CCC(=O)Oc2ccc([N+](=O)[O-])cc2[N+](=O)[O-])cc(OC)c1OC [fragment 33, 2,4-Dinitrophenyl 3-(3,4,5-trimethoxyphenyl)propanoate]
isoTOP-ABPP reactivity ratio at lysine P46783_K139 ([3]; 50 uM, in vitro): 0.7

Structure (SMILES): CC(=O)Oc1ccc([N+](=O)[O-])cc1[N+](=O)[O-] [fragment 43, 2,4-Dinitrophenyl acetate]
isoTOP-ABPP ratio (R) at liganded lysine Q96HE7_K413 [1]: 2.0

isoTOP-ABPP reactivity ratio at lysine Q96HE7_K413 [1]: 1.4
isoTOP-ABPP reactivity ratio at lysine Q9BRQ3_K60 [2]: 1.0
isoTOP-ABPP reactivity ratio at lysine O14879_K148 ([4]; 50 uM, in vitro): 1.0
Structure (SMILES): CCn1cc(C(=O)Oc2c(F)c(F)c(F)c(F)c2F)c(=O)c2ccc(C)nc21 [fragment 28, Pentafluorophenyl 1-ethyl-7-methyl-4-oxo-1,4-dihydro-1,8-naphthyridine-3-carboxylate]
